From PMC3612894 (Journal of medicinal chemistry, 2013)

Tested on: T. cruzi
Assay: T. cruzi in vitro inhibition assay
Assay type: cell-based, Trypanosoma cruzi
Settings: host cells NIH 3T3

Row | SMILES | selectivity over host cells
1 | Clc1ccc(COc2cccc(Cn3ccnc3)c2)cc1 [Compound 4j, 1-(3-((4-chlorobenzyl)oxy)benzyl)-1H-imidazole] | greater than 160 fold
2 | Cc1cc(Oc2cccc(Cn3ccnc3)c2)cc(C)c1Cl [Compound 4c, 1-(3-(4-chloro-3,5-dimethylphenoxy)benzyl)-1H-imidazole] | greater than 160 fold
